Assay results: paper PMC8369945 (Hepatology Communications, 2021)
“Also recorded” adds a separate entry of the source.

How the values were obtained:
[1] = system: db/db mice; test: db/db mouse model of T2DM; type: in vivo; settings: 10 days once daily p.o., pio 30, PXL065 20, d-S-pio 20 mg/kg
[2] = system: C57BL/6J male mice; test: Weight gain study in mouse; type: in vivo; settings: normal C57BL/6J male mice, pio 30, PXL065 15, d-S-pio 15 mg/kg/day, twice daily; for body weight versus vehicle: after 10 days of dosing
[3] = system: C57BL/6J mice on CD or MCD diet; test: Choline-deficient; type: in vivo, mouse; settings: for markers of NASH progression: two diet models (d-S-pio only CD)
[4] = Phase 1a clinical study, pharmacokinetics in healthy subjects; settings: human, single 22.5 mg PXL065
[5] = biological target: T1, PPARδ (Homo sapiens, UniProt Q03181); test: PPARδ coactivator recruitment
T1 sequence (Q03181 1-441): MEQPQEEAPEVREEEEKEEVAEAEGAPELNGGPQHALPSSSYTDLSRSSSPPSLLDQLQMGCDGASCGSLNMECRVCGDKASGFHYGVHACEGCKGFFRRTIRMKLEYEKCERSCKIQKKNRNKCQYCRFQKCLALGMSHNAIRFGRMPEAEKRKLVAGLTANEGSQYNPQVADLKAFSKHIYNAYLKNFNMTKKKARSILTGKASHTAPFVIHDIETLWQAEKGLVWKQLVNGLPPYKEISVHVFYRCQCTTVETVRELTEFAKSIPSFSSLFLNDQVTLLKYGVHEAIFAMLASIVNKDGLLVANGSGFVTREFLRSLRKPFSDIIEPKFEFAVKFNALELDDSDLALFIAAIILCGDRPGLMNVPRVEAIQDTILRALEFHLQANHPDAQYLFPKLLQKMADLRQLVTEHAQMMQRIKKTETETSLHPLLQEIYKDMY

[6] = biological target: T2, PPARα (Homo sapiens, UniProt Q07869); test: PPARα coactivator recruitment
T2 sequence (Q07869 1-468): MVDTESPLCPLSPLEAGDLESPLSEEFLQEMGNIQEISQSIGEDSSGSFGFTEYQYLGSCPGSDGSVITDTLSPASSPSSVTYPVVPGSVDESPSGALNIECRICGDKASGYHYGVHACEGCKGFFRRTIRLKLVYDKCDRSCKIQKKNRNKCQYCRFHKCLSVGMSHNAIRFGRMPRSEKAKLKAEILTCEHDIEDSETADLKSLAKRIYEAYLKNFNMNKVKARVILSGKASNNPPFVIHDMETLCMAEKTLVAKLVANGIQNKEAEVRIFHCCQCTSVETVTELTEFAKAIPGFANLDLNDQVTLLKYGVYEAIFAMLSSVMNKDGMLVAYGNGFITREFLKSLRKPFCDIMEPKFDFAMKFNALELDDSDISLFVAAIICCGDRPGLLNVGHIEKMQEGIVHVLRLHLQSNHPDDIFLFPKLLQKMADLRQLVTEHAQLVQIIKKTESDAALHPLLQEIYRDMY

| SMILES | inflammatory markers serum amyloid A, IL-1β and IL-6 [1] | serum adiponectin [1] | body weight versus vehicle [2] | adiponectin ([3]; CD diet mice) | reduction of hepatic steatosis and triglycerides, compared with pioglitazone ([3]; CD diet mice) | markers of NASH progression [3] | exposure to (R)-pioglitazone, higher than in the 45-mg Actos group [4] | exposure to the (S)-enantiomer, lower than in the 45-mg Actos group [4] | serum insulin [1] | fluid retention (total body water) [2] | hepatic fibrosis ([3]; either diet) | agonist activity at PPARδ [5] | agonist activity at PPARα [6] | body-weight loss compared with vehicle- or PXL065-treated animals ([3]; MCD diet) |
| --- | --- | --- | --- | --- | --- | --- | --- | --- | --- | --- | --- | --- | --- | --- |
| [2H][C@]1(Cc2ccc(OCCc3ccc(CC)cn3)cc2)SC(=O)NC1=O [PXL065, deuterated (R)‐pioglitazone] | significantly decreased | nonsignificant trend | did not increase body weight | increase | superior to pioglitazone | significantly affected all markers of NASH progression | 19% | 42% | – | – | – | – | – | – |
| [2H][C@@]1(Cc2ccc(OCCc3ccc(CC)cn3)cc2)SC(=O)NC1=O [d‐S‐pio, deuterated (S)‐pioglitazone] | no effect | significantly increased | significantly increased body weight over vehicle | increase | – | overall without effect | – | – | trend toward significant reduction | trend was observed for increased fluid retention; also recorded: a trend was observed | antifibrotic effect similar to that observed with PXL065 and pioglitazone | – | – | – |
| CCc1ccc(CCOc2ccc(CC3SC(=O)NC3=O)cc2)nc1 (centres unmarked) [pioglitazone, reference compound] | significantly decreased | significantly increased | significantly increased body weight over vehicle | increase | – | significantly affected all markers of NASH progression | – | – | significantly decreased | trend was observed for increased fluid retention; also recorded: significant increase in total body water | – | Neither pioglitazone, PXL065, nor d‐S‐pio showed binding to PPARα or agonist activity at PPARα or PPARδ | Neither pioglitazone, PXL065, nor d‐S‐pio showed binding to PPARα or agonist activity at PPARα or PPARδ | weight loss tended to be less |
